Data reported in patent US7943629B2, “Sulphimides as protein kinase inhibitors” (Bayer Schering Pharma AG, priority 2006, dated 2011).

Columns and labels:
[1] = molecular target: T1, Aurora-C (Homo sapiens, UniProt Q9UQB9); assay: Aurora-C kinase assay; type: biochemical; conditions: for IC50: 3 μM ATP, 22° C., 90 min
T1 construct: made in house; host or cells: transiently transfected HEK293 cells
T1 sequence (Q9UQB9 1-309): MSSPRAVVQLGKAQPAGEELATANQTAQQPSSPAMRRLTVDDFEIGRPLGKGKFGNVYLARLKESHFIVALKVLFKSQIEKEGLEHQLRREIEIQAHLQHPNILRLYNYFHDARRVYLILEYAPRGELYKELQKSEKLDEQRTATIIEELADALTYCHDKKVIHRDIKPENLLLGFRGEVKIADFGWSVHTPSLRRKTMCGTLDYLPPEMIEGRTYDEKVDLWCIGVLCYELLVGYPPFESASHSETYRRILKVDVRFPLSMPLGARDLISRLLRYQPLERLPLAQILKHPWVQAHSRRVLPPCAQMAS
Experimental: Recombinant Aurora-C protein was expressed in transiently transfected HEK293 cells and then purified. The kinase substrate used was the biotinylated peptide having the amino acid sequence biotin-FMRLRRLSTKYRT, which was purchased from Jerini AG in Berlin.
Aurora-C [5 nM in the test mixture, test volume 5 μl] was incubated in the presence of various concentrations of test substances (0 μM and 10 measurement points within the range 0.001-20 μM in duplicate) in assay buffer [25 mM HEPES pH 7.4, 0.5 mM MnCl2, 0.1 mM Na ortho-vanadate, 2.0 mM dithiothreitol, 0.05% bovine serum albumin (BSA), 0.01% Triton X-100, 3 μM adenosine trisphosphate (ATP), 0.67 nCi/μl gamma-^33P-ATP, 2.0 μM substrate peptide biotin-FMRLRRLSTKYRT, 1.0% dimethyl sulphoxide] at 22° C. for 90 min. The reaction was stopped by adding 12.5 μl of an EDTA/detection solution [16 mM EDTA, 40 mM ATP, 0.08% Triton X-100, 4 mg/ml PVT streptavidin SPA beads (from Amersham)]. After incubation for 10 minutes, the SPA beads were pelleted by centrifugation at 1000×G for 10 minutes. Measurement took place in a PerkinElmer Topcount scintillation counter. The measured data were normalized to 0% inhibition (enzyme reaction without inhibitor) and 100% inhibition (enzyme reaction in the presence of 0.1 μM staurosporine (from Sigma)). The IC50 values were determined by means of a 4-parameter fit using the company's own software.

[2] = molecular target: T2, CDK2/CycE (Homo sapiens, UniProt P24941); assay: CDK2/CycE kinase assay; type: biochemical; conditions: for IC50: 0.5 μM ATP, histone IIIS, 22° C., 10 min; for inhibition of CDK2 kinase (in words): summary of Tab. 1
T2 construct: GST; purchased ProQinase GmbH, Freiburg; host or cells: baculovirus-infected insect cells (Sf9)
Experimental: Recombinant CDK2- and CycE-GST fusion proteins, purified from baculovirus-infected insect cells (Sf9), were purchased from ProQinase GmbH, Freiburg. The histone IIIS used as kinase substrate was purchased from Sigma.
(§1) CDK2/CycE (50 ng/measurement point) was incubated in the presence of various concentrations of test substances (0 μM, and within the range 0.01-100 μM) in assay buffer [50 mM Tris/HCl pH 8.0, 10 mM MgCl2, 0.1 mM Na ortho-vanadate, 1.0 mM dithiothreitol, 0.5 μM ATP, 10 μg/measurement point histone IIIS, 0.2 μCi/measurement point ^33P-gamma-ATP, 0.05% NP40, 1.25% dimethyl sulphoxide] at 22° C. for 10 min. The reaction was stopped by adding EDTA solution (250 mM, pH 8.0, 15 μl/measurement point).
15 μl of each reaction mixture were loaded onto P30 filter strips (from Wallac), and non-incorporated ^33P-ATP was removed by washing the filter strips three times in 0.5% strength phosphoric acid for 10 min each time.
(§2) After the filter strips had been dried at 70° C. for 1 hour, the filter strips were covered with scintillator strips (MeltiLex™ A, from Wallac) and baked at 90° C. for 1 hour. The amount of incorporated ^33P (substrate phosphorylation) was determined by scintillation measurement in a gamma radiation counter (Wallac).

[3] = molecular target: T3, CDK1/CycB (Homo sapiens, UniProt P06493); assay: CDK1/CycB kinase assay; type: biochemical; conditions: 0.5 μM ATP, histone IIIS, 22° C., 10 min
T3 construct: GST; purchased ProQinase GmbH, Freiburg; host or cells: baculovirus-infected insect cells (Sf9)
T3 sequence (P06493 whole entry): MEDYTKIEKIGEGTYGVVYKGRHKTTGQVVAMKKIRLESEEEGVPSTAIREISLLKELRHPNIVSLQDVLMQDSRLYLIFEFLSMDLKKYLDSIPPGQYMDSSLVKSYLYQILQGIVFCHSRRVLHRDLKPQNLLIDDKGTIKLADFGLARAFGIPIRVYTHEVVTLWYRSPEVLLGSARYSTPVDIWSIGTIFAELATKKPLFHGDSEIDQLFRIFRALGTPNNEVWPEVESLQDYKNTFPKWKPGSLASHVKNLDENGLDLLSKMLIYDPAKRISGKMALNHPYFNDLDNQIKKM
T3 sequence (P14635 whole entry partner): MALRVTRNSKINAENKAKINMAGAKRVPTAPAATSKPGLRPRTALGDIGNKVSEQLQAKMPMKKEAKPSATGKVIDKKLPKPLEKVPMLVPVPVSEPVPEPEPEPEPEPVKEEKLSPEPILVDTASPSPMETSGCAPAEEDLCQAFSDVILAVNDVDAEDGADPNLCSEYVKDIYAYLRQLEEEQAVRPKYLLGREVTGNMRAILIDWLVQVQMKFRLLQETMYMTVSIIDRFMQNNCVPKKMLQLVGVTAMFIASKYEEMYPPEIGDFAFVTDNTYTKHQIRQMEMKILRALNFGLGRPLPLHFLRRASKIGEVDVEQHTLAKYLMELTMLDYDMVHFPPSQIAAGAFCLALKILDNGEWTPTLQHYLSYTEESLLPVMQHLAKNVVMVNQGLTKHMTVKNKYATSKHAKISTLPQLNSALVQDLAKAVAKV
Experimental: as §1, with “Recombinant CDK1- and CycB-GST fusion proteins, purified from baculovirus-infected insect cells (Sf9), were purchased from ProQinase GmbH, Freiburg. The histone IIIS used as kinase substrate can be purchased from Sigma. CDK1/CycB (200” for “CDK2/CycE (50”
as §2, with “15 μl of each reaction mixture were loaded onto P30 filter strips (from Wallac), and non-incorporated ^33P-ATP was removed by washing the filter strips three times in 0.5% strength phosphoric acid for 10 min each time. After” for “After”

[4] = tested on: MCF7 breast tumour cells; assay: MCF7 proliferation assay; type: cell-based, human; conditions: for IC50: Homo sapiens, MCF7, 96 h, 4 days incubation, crystal violet staining; for antiproliferative activity, MCF7 (in words): summary of Tab. 2
Experimental: Cultivated human MCF7 breast tumour cells (ATCC HTB-22) were plated out in a density of 5000 cells/measurement point in 200 μl of growth medium (RPMI1640, 10% foetal calf serum, 2 mU/mL insulin, 0.1 nM oestradiol) in a 96-well multititre plate. After 24 hours, the cells from a plate (zero plate) were stained with crystal violet (see below), while the medium in the other plates was replaced by fresh culture medium (200 μl) to which the test substances had been added in various concentrations (0 μM, and in the range 0.1-30 μM; the final concentration of the solvent dimethyl sulphoxide was 0.5%). The cells were incubated in the presence of the test substances for 4 days. The cell proliferation was determined by staining the cells with crystal violet: the cells were fixed by adding 20 μl/measurement point of an 11% strength glutaraldehyde solution at room temperature for 15 min. After the fixed cells had been washed three times with water, the plates were dried at room temperature. The cells were stained by adding 100 μl/measurement point of a 0.1% strength crystal violet solution (pH adjusted to pH 3 by adding acetic acid). After the stained cells had been washed three times with water, the plates were dried at room temperature. The dye was dissolved by adding 100 μl/measurement point of a 10% strength acetic acid solution, and the extinction was determined by photometry at a wavelength of 595 nm. The percentage change in cell growth was calculated by normalizing the measurements to the extinctions of the zero point plate (=0%) and the extinction of the untreated (0 μM) cells (=100%). The IC50 values were determined by means of a 4-parameter fit using the company's own software.

[5] = molecular target: T4, KDR (VEGFR2) (Homo sapiens, UniProt P35968); assay: KDR kinase assay; type: biochemical; conditions: 10 μM ATP, 22° C., 45 min, HTRF
T4 construct: made in house; host or cells: E. coli
T4 sequence (P35968 20-1356, species assumed): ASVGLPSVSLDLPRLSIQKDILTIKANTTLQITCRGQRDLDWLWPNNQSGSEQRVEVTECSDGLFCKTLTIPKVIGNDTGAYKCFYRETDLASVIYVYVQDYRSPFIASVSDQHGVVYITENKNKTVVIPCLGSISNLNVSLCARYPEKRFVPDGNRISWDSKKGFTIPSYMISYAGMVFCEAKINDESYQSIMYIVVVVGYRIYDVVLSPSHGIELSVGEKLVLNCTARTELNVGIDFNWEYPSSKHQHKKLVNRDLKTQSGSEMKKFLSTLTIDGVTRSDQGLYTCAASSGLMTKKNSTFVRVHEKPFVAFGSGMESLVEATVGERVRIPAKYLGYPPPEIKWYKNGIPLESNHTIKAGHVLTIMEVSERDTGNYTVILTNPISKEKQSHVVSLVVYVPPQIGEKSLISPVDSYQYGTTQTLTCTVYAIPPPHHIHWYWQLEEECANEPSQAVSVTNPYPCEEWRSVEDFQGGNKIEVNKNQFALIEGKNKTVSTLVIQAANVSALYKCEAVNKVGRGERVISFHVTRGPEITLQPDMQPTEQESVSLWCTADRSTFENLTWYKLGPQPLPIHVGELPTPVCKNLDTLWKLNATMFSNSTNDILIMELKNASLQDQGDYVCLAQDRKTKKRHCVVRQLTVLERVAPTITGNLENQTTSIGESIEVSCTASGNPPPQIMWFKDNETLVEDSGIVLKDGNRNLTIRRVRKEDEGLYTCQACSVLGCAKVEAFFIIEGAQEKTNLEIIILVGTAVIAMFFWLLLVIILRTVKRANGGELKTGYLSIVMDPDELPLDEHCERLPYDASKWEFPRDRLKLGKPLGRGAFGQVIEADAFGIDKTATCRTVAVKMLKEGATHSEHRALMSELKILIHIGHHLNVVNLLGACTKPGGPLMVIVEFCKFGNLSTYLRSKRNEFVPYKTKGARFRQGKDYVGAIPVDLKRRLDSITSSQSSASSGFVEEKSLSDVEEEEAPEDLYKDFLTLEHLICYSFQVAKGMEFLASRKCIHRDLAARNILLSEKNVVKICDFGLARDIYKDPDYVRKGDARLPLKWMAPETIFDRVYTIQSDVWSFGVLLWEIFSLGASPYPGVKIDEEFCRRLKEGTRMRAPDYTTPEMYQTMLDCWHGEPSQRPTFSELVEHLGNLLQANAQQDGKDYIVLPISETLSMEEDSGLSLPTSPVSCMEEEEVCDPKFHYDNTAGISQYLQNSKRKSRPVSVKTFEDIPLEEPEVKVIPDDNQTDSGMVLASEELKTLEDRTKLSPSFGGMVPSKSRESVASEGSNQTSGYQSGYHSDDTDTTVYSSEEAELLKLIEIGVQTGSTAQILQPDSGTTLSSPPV
Experimental: Recombinant KDR protein was expressed in E. coli and then purified. The kinase substrate used was the biotinylated peptide having the amino acid sequence biotin-DFGLARDMYDKEYYSVG, which was purchased from Biosynthan. KDR [test volume 5 μl] was incubated in the presence of various concentrations of test substances (0 μM, and 10 measurement points within the range 0.001-20 μM in duplicate) in assay buffer [50 mM HEPES pH 7.0, 25.0 mM MgCl2, […], 0.1 mM Na ortho-vanadate, 1.0 mM dithiothreitol, 0.001% NP40, 10 μM ATP, 0.03 μM substrate peptide […], 1.0% dimethyl sulphoxide] at 22° C. for 45 min. The reaction was stopped by adding 5 μl of an EDTA/detection solution [50 mM HEPES pH 7.5, 125 mM EDTA, 0.2% BSA, 0.1 μM streptavidin-XLent (from CisBio), 2 nM PT66-Eu (from PerkinElmer)]. The fluorescence emission at 620 nm and 665 nm after excitation with light of the wavelength 350 nm was measured in a Rubystar HTRF instrument from BMG Labsystems.
The measured data (ratio of emission 665 divided by emission 620 multiplied by 10 000) were normalized to 0% inhibition (enzyme reaction without inhibitor) and 100% inhibition (all assay components apart from enzyme). The IC50 values were determined by means of a 4-parameter fit using the company's own software.

Structure (SMILES) | IC50 [1] [nM] | IC50 [2] [nM] | inhibition of CDK2 kinase (in words) [2] | IC50 [3] [nM] | IC50 [4] [nM] | antiproliferative activity, MCF7 (in words) [4] | IC50 [5] [nM] | inhibition of Aurora C kinase (in words) ([1]; summary of Tab. 1)
Cc1ccc(S(=O)(=O)N=S(C)c2ccc(Nc3ncc(Br)c(N[C@H](C)C(C)(C)O)n3)cc2)cc1 (mixture of isomers) [Example 9, (RS)—S-{4-[(5-Bromo-4-{[(R)-2-hydroxy-1,2-dimethylpropyl]amino}pyrimidin-2-yl)amino]phenyl}-S-methyl-N-(tolylsulphonyl)sulphimide] | 360 | 28 | shows inhibition | 150 | < 100 | excellent antiproliferative activity | 36 | –
C[C@@H](Nc1nc(Nc2ccc(S(C)=NS(=O)(=O)c3cnccc3Cl)cc2)ncc1Br)C(C)(C)O (mixture of isomers) [Example 11, (RS)—S-{4-[(5-Bromo-4-{[(R)-2-hydroxy-1,2-dimethylpropyl]amino}pyrimidin-2-yl)amino]phenyl}-N-[(4-chloro-3-pyridyl)sulphonyl]-S-methylsulphimide] | 370 | 14 | active | 90 | < 100 | – | 44 | active
COc1ccc(S(=O)(=O)N=S(C)c2ccc(Nc3ncc(Br)c(N[C@H](C)C(C)(C)O)n3)cc2)cc1 (mixture of isomers) [Example 12, (RS)—S-{4-[(5-Bromo-4-{[(R)-2-hydroxy-1,2-dimethylpropyl]amino}pyrimidin-2-yl)amino]phenyl}-N-[(4-methoxyphenyl)sulphonyl]-S-methylsulphimide] | 480 | 39 | – | 160 | 200 | – | 38 | –
C[C@@H](Nc1nc(Nc2ccc(S(C)=NS(=O)(=O)Cc3ccccc3)cc2)ncc1Br)C(C)(C)O (mixture of isomers) [Example 13, (RS)—N—(Benzylsulphonyl)-S-{4-[(5-bromo-4-{[(R)-2-hydroxy-1,2-dimethylpropyl]-amino}pyrimidin-2-yl)amino]phenyl}-S-methylsulphimide] | 660 | 28 | – | 140 | 110 | excellent antiproliferative activity | 15 | –
C[C@@H](Nc1nc(Nc2ccc(S(C)=NS(=O)(=O)C(F)(F)F)cc2)ncc1Br)C(C)(C)O (mixture of isomers) [Example 14, (RS)—S-{4-[(5-Bromo-4-{[(R)-2-hydroxy-1,2-dimethylpropyl]amino}pyrimidin-2-yl)amino]phenyl}-S-methyl-N-[(trifluoromethyl)sulphonyl]sulphimide] | 990 | 39 | – | 120 | 110 | excellent antiproliferative activity | 70 | –
C[C@@H](Nc1nc(Nc2ccc(S(C)=NS(=O)(=O)c3ccccc3)cc2)ncc1Br)C(C)(C)O (mixture of isomers) [Example 15, (RS)—S-{4-[(5-Bromo-4-{[(R)-2-hydroxy-1,2-dimethylpropyl]amino}pyrimidin-2-yl)amino]phenyl}-S-methyl-N-(phenylsulphonyl)sulphimide] | 570 | 21 | – | 110 | 110 | excellent antiproliferative activity | 37 | –
C[C@@H](Nc1nc(Nc2ccc(S(C)=NS(=O)(=O)c3ccc(OC(F)(F)F)cc3)cc2)ncc1Br)C(C)(C)O (mixture of isomers) [Example 16, (RS)—S-{4-[(5-Bromo-4-{[(R)-2-hydroxy-1,2-dimethylpropyl]-amino}pyrimidin-2-yl)amino]phenyl}-S-methyl-N-{[4-(trifluoromethoxy)phenyl]-sulphonyl}sulphimide] | 1800 | 72 | – | 260 | 170 | excellent antiproliferative activity | 150 | –
